Results on one compound are retold here after patent US6336949B1, “Slow release urea fertilizer composition and a process for the preparation of the said composition” (Council of Scientific & Industrial Research, priority 1999, dated 2002).

In one assay the test system is Nitrobacter. Briefly: Nitrobacter population in soil. In kind it is cell-based. The settings on record: no coating material; urea 100 mg N kg^−1 soil. As to the method: (§1) Representative soil samples were analyzed for different forms of N i.e., urea N, NH4 and NO3-N at regular intervals for two weeks to assess the nitrification inhibitory properties of the materials in question following the standard procedures (Douglas and Bremner, 1970, Soil Sci. Soc. Am. Proc. 34:859-862). Another set of experiment was conducted to assay the total bacterial population, total actinomycetes population and nitrifying bacteria viz., Nitrosomons and Nitrobacber (Alexander and Clark, 1965, In. Method of Soil Analysis Part II (CA Black Eds) Am. Soc .Agron. Inc. Wisconsin, U.S.A.; KenKnight and Torariko. 1973, Agrokhimiya 7:3)

The test system of a further assay is urease. The following applies: no coating material; urea 100 mg N kg^−1 soil; 24 hours of incubation.
In the next assay the test system is Total bacteria. Briefly: Total bacterial population in soil. Type of assay: cell-based. The settings on record: no coating material; urea 100 mg N kg^−1 soil. The method, then: as §1
Assay [1] has as its system menthol mint (Mentha arvensis). Briefly: Greenhouse pot culture experiment: herb yield, N accumulation, apparent N recovery. Type of assay: in vivo. The settings on record: urea N 100 mg kg^−1, coating materials added at 1.00% w/w (Nil for urea alone). The method, then: To confirm the results of the incubation a pot culture experiment was conducted subsequently taking menthol mint (Mentha arvensis) as the test crops. Eight kg soil (<2 mm) were put in plastic container. The same fertilizers coating treatments as were in incubation experiment were imposed in this experiment, except that instead of two levels of coating materials, these were applied at 1.00% on v/w basis. The experiment was laid in a completely randomized design with four replications. The soils were analyzed for mineral forms of N at regular intervals. In addition, the plant samples were analyzed for N accumulation and apparent N recovery. [formula]

Another assay concerns Actinomycetes. As to the kind of experiment: Total actinomycetes population in soil. In kind it is cell-based. The settings on record: no coating material; urea 100 mg N kg^−1 soil. The method, then: as §1
A further assay concerns Nitrosomonus. As to the kind of experiment: Nitrosomonus population in soil. Type of assay: cell-based. The settings on record: no coating material; urea 100 mg N kg^−1 soil. The method, then:
as §1

The structures appear in SMILES notation.

Take `NC(N)=O` [Urea alone, Urea]: in the assay with Nitrobacter, the Nitrobacter is listed as 14.00 × 103, g^−1 soil. Moreover, the Urease activity in the assay on urease is 66.5 μg NH4—N liberated/g soil/hour. For the same compound, the Total bacteria in the assay with Total bacteria was 4.00 × 105, g^−1 soil. Besides, in assay [1], the “Apparent recovery (apparent N recovery)” value is on record as 29.1%, the Herb yield was 42.8 g pot^−1 and the N accumulation was 450 mg pot^−1. In assay [1] (listed as urea alone), the “Apparent recovery (apparent N recovery)” value came to 29%. In addition, in the assay with Actinomycetes, the Actinomycetes was 5.66 × 104, g^−1 soil. The Nitrosomonus in the assay with Nitrosomonus was 3.30 × 103, g^−1 soil.
